Assay results published in patent publication US9303016B2, “Derivatives of aza adamantane and uses thereof” (CONNEXIOS LIFE SCIENCES PVT. LTD., priority 2011, dated 2016).

The compounds below were run against T1, human full length HSD11β1 (Homo sapiens, UniProt P28845) (assay: In Vitro HSD11β1 Inhibition Assay). Settings: CHO cells transiently expressing human HSD11β1; 200 nM cortisone+500 uM NADPH overnight; cortisone to cortisol by LC/MS-MS; read-out: 11βHSD1 (IC50).
T1 construct: transient expression of human full length HSD11β1 expression vector; host or cells: CHO cells, transient transfection
T1 sequence (P28845 whole entry): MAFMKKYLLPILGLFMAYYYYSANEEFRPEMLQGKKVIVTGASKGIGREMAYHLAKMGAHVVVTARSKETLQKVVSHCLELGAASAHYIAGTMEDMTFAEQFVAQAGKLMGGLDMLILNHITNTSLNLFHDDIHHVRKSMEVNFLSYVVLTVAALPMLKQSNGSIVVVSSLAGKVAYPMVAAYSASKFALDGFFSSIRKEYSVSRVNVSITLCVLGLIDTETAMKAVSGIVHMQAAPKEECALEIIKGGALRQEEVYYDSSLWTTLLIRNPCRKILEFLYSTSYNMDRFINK
Type: cell-based
Method: In Vitro HSD11β1 Inhibition Assay:
CHO cells were maintained in Dulbecco's modified Eagle's medium/nutrient mixture F-12 containing 5% fetal bovine serum (v/v) and 2 mM glutamine. Cells were cultured at 37° C. with 5% CO2. For transient expression of human full length HSD11β1 expression vector (OriGene Technologies), cells were seeded at a density of 2×10^5 cells/well in a 6-well plate. Transfection was done using Turbofectin8 reagent (OriGene Technologies), according to the protocol provided with the reagent. After 24 hours post-transfection, cells were trypsinized and pooled together before they were re-seeding to 96-well plate at a density of 40000 cells/well. 24 hours after re-seeding, cells were incubated with 200 nM cortisone+500 uM NADPH (or along with small molecule inhibitors) overnight. The enzymatic activity or inhibition of enzyme activity was measured by estimating the conversion of cortisone to cortisol by LC/MS-MS method. The IC50 in nM was calculated from a 8 point log scale of concentration versus inhibition.
With `O=C(CC(c1ccc(F)cc1)c1c[nH]c2ccccc12)N1C2CC3CC1CC(O)(C3)C2` (stereo not drawn) [Compound 73, 3-(4-fluorophenyl)-1-(5-hydroxy-2-azatricyclo[3.3.1.1^3,7]dec-2-yl)-3-(1H-indol-3-yl)propan-1-one] the IC50 was less than 100 nM. Compound `Cc1cccc2[nH]cc(C(CC(=O)N3C4CC5CC3CC(O)(C5)C4)C(C)C)c12` (stereo not drawn) [Compound 74, 1-(5-hydroxy-2-azatricyclo[3.3.1.1^7]dec-2-yl)-4-methyl-3-(4-methyl-1H-indol-3-yl)pentan-1-one] has an IC50 greater than 250 nM. With `CC(CC(=O)N1C2CC3CC1CC(O)(C3)C2)c1c[nH]c2ccc(F)cc12` (stereo not drawn) [Compound 75, 3-(5-fluoro-1H-indol-3-yl)-1-(5-hydroxy-2-azatricyclo[3.3.1.1^3,7]dec-2-yl)butan-1-one] the IC50 was 200 to 250 nM. `CC(CC(=O)N1C2CC3CC1CC(c1nnn[nH]1)(C3)C2)c1c[nH]c2cccc(Cl)c12` (stereo not drawn) [Compound 76, 3-(4-chloro-1H-indol-3-yl)-1-[5-(1H-tetrazol-5-yl)-2-azatricyclo[3.3.1.1^3,7]dec-2-yl]butan-1-one] showed an IC50 greater than 250 nM. Work on `Cc1cccc2[nH]cc(C(C)CC(=O)N3C4CC5CC3CC(c3nnn[nH]3)(C5)C4)c12` (stereo not drawn) [Compound 77, 3-(4-methyl-1H-indol-3-yl)-1-[5-(1H-tetrazol-5-yl)-2-azatricyclo[3.3.1.1^3,7]dec-2-yl]butan-1-one] yielded an IC50 greater than 250 nM. Work on `Cc1cccc2c(C(C)CC(=O)N3C4CC5CC3CC(O)(C5)C4)c[nH]c12` (stereo not drawn) [Compound 78, 1-(5-hydroxy-2-azatricyclo[3.3.1.1^3,7]dec-2-yl)-3-(7-methyl-1H-indol-3-yl)butan-1-one] yielded an IC50 greater than 250 nM. `CC(CC(=O)N1C2CC3CC1CC(O)(C3)C2)c1c[nH]c2cc(F)ccc12` (stereo not drawn) [Compound 79, 3-(6-fluoro-1H-indol-3-yl)-1-(5-hydroxy-2-azatricyclo[3.3.1.1^3,7]dec-2-yl)butan-1-one] gave an IC50 of 100 to 150 nM. Work on `CC(CC(=O)N1C2CC3CC1CC(O)(C3)C2)c1cn(CCO)c2cccc(C3CC3)c12` (stereo not drawn) [Compound 80, 3-[4-cyclopropyl-1-(2-hydroxyethyl)-1H-indol-3-yl]-1-(5-hydroxy-2-azatricyclo[3.3.1.1^3,7]dec-2-yl)butan-1-one] yielded an IC50 greater than 250 nM. Compound `O=C(CC(c1ccccc1)c1c[nH]c2cccc(F)c12)N1C2CC3CC1CC(O)(C3)C2` (stereo not drawn) [Compound 83, 3-(4-fluoro-1H-indol-3-yl)-1-(5-hydroxy-2-azatricyclo[3.3.1.1^3,7]dec-2-yl)-3-phenylpropan-1-one] has an IC50 of less than 100 nM. With `CC(CC(=O)N1C2CC3CC1CC(O)(C3)C2)c1nc2ccccc2s1` (stereo not drawn) [Compound 84, 3-(1,3-benzothiazol-2-yl)-1-(5-hydroxy-2-azatricyclo[3.3.1.1^3,7]dec-2-yl)butan-1-one] the IC50 was 200 to 250 nM. `CC(CC(=O)N1C2CC3CC(C2)CC1C3)c1c[nH]c2ncccc12` (stereo not drawn) [Compound 85] showed an IC50 of less than 100 nM. In the case of `CC(CC(=O)N1C2CC3CC1CC(O)(C3)C2)c1c[nH]c2ncccc12` (stereo not drawn) [Compound 86, 1-(5-hydroxy-2-azatricyclo[3.3.1.1]dec-2-yl)-3-(1H-pyrrolo[2,3-b]pyridin-3-yl)butan-1-one], the IC50 is reported as greater than 250 nM. `CC(CC(=O)N1C2CC3CC1CC(O)(C3)C2)c1c[nH]c2nccc(Cl)c12` (stereo not drawn) [Compound 87, 3-(4-chloro-1H-pyrrolo[2,3-b]pyridin-3-yl)-1-(5-hydroxy-2-azatricyclo[3.3.1.1^3,7]dec-2-yl)butan-1-one] gave an IC50 of 150 to 200 nM. Work on `Cc1ccnc2[nH]cc(C(C)CC(=O)N3C4CC5CC3CC(O)(C5)C4)c12` (stereo not drawn) [Compound 88, 1-(5-hydroxy-2-azatricyclo[3.3.1.1^3,7]dec-2-yl)-3-(4-methyl-1H-pyrrolo[2,3-b]pyridin-3-yl)butan-1-one] yielded an IC50 greater than 250 nM. `CC(C)C(CC(=O)N1C2CC3CC1CC(O)(C3)C2)c1c[nH]c2ncccc12` (stereo not drawn) [Compound 90, 1-(5-hydroxy-2-azatricyclo[3.3.1.1^3,7]dec-2-yl)-4-methyl-3-(1H-pyrrolo[2,3-b]pyridin-3-yl)pentan-1-one] gave an IC50 greater than 250 nM.
